From patent US20250339531A1, “DUX4 POLYPEPTIDES AND NUCLEIC ACIDS FOR TREATING INFLAMMATORY AND AUTOIMMUNE CONDITIONS” (Fred Hutchinson Cancer Center, priority 2021, published 2025)

Tests used:
[1] = system: de novo protein synthesis; assay: HPG Click-iT labeling of nascent proteins; format: cell-based, human; settings: FSHD myotubes and SuSa cells co-stained for H3.X/Y
Description: Cells were incubated for 30 minutes in DMEM or RPMI media depleted for methionine and cysteine (Gibco), followed by a 1-hour incubation in methionine-depleted media supplemented with 200 μM HPG (Sigma). Cells were fixed with 4% paraformaldehyde (Electron Microscopy Sciences) diluted in PBS for 10 minutes at room temperature and stained with Click-iT HPG Alexa Fluor 488 Protein Synthesis Assay Kit (Invitrogen) according to manufacturer's protocol.

[2] = system: IDO1; assay: Immunofluorescence of IFNG-induced IDO1 in FSHD MB200 myotubes; format: cell-based, human; settings: DUX4-positive versus DUX4-negative FSHD myotubes
Description: All myoblast experiments were conducted in immortalized MB135 or MB200 myoblast cell lines (isolated from a control or FSHD2 subject, respectively cultured in Ham's F-10 Nutrient Mix (Gibco) supplemented with 15% fetal bovine serum (Hyclone), 100 U/100 μg/ml penicillin/streptomycin (Gibco), 1 μM dexamethasone (Sigma), and 10 ng/ml recombinant human basic fibroblast growth factor (PeproTech). To differentiate the myoblasts to myotubes, media was changed to DMEM supplemented with 10 μg/ml insulin (Sigma) and 10 μg/ml transferrin (Sigma). Cell lines containing doxycycline-inducible transgenes were additionally cultured with 2 μg/mL puromycin (Sigma). Transgenes were induced with 1 μg/mL of doxycycline (Sigma) for 4 hours prior to other treatments for a total of 20 hrs. The Kitra-SRS cells (RRID:CVCL_YI69) were provided by Dr. H. Otani and Osaka University (Nakai et al., 2019) and were cultured in DMEM supplemented with 10% fetal bovine serum (Hyclone) and 100 U/100 μg/ml penicillin/streptomycin (Gibco). Biological replicates consisted of independent but parallel experiments, such as simultaneously stimulating three cell culture plates with IFNγ. Technical replicates consisted of repeat measurements of the same biological sample, such as loading the same biological sample in triplicate for analysis by RT-qPCR. […]

## endogenous DUX4: DUX4 expressed endogenously in FSHD myotubes and SuSa cells
[1]
  HPG Click-iT signal in cells with endogenous expression: dramatic reduction in HPG Click-iT signal
[2]
  IFNG induction of IDO1: sufficient to prevent ISG induction by IFNG
